Test results taken from PubChem BioAssay AID330 (DTP/NCI, 2004).
Values joined by “and” are separate entries in the source; they are usually repeats but may differ in a detail not shown here. Equal entries are not always repeated. Toxic doses and inconclusive results are not listed. Rule for the calls: active = survival T/C of 150% or more; inactive = T/C below 125% in these data.

System: P388 leukemia ip, CD2F1 mice, survival T/C
Assay: NCI In Vivo Anticancer Drug Screen. Data for tumor model P388 Leukemia (intraperitoneal) in CD2F1 (CDF1) mice
Conditions: endpoint: median survival time, higher = longer survival
How it was run: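 Mice carrying the transplanted tumor received test compound or vehicle. Survival was recorded in each group, and the value is the treated-group measurement divided by that of the vehicle-treated control group.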

[1] = dose: 60.0 mg/kg/injection, schedule: Q01DX005 (ip), vehicle: saline with Tween-80
[2] = dose: 100.0 mg/kg/injection, schedule: Q01DX009 (ip), vehicle: saline
[3] = dose: 200.0 mg/kg/injection, schedule: Q01DX009 (ip), vehicle: saline
[4] = dose: 50.0 mg/kg/injection, schedule: Q01DX005 (ip), vehicle: saline with Tween-80
[5] = dose: 100.0 mg/kg/injection, schedule: Q01DX005 (ip), vehicle: saline with Tween-80
[6] = dose: 200.0 mg/kg/injection, schedule: Q01DX005 (ip), vehicle: saline with Tween-80
[7] = dose: 100.0 mg/kg/injection, schedule: Q01DX009 (ip), vehicle: Klucel (hydroxypropylcellulose) (HPC)
[8] = dose: 200.0 mg/kg/injection, schedule: Q01DX009 (ip), vehicle: Klucel (hydroxypropylcellulose) (HPC)
[9] = dose: 400.0 mg/kg/injection, schedule: Q01DX009 (ip), vehicle: Klucel (hydroxypropylcellulose) (HPC)
[10] = dose: 50.0 mg/kg/injection, schedule: Q01DX005 (ip), vehicle: Klucel (hydroxypropylcellulose) (HPC)
[11] = dose: 100.0 mg/kg/injection, schedule: Q01DX005 (ip), vehicle: Klucel (hydroxypropylcellulose) (HPC)
[12] = dose: 200.0 mg/kg/injection, schedule: Q01DX005 (ip), vehicle: Klucel (hydroxypropylcellulose) (HPC)
[13] = dose: 50.0 mg/kg/injection, schedule: Q01DX009 (ip), vehicle: saline with Tween-80
[14] = dose: 100.0 mg/kg/injection, schedule: Q01DX009 (ip), vehicle: saline with Tween-80
[15] = dose: 200.0 mg/kg/injection, schedule: Q01DX009 (ip), vehicle: saline with Tween-80

Measured: T/C

C/C(=C\C(=O)c1ccccc1)Nc1noc(-c2ccccc2)n1
inactive: [1] 97 % of control | dose: 120.0 mg/kg/injection, schedule: Q01DX005 (ip), vehicle: saline with Tween-80 94 % of control | dose: 240.0 mg/kg/injection, schedule: Q01DX005 (ip), vehicle: saline with Tween-80 96 % of control

CCCCCCCCCCCCCCCCCC(=O)CC(=O)C(F)(F)F
inactive: dose: 50.0 mg/kg/injection, schedule: Q01DX009 (ip), vehicle: saline 100 % of control | [2] 99 % of control | [3] 99 % of control

CC1=CC(C)(C)N(C)C(N)=N1
inactive: dose: 12.5 mg/kg/injection, schedule: Q01DX005 (ip), vehicle: saline 100 % of control | dose: 25.0 mg/kg/injection, schedule: Q01DX005 (ip), vehicle: saline 91 % of control | dose: 50.0 mg/kg/injection, schedule: Q01DX005 (ip), vehicle: saline 91 % of control

CN1CC2c3ccccc3C(=O)C1(O)c1ccccc12 (stereo not given)
inactive: [4] 103 % of control | [5] 103 % of control | [6] 103 % of control

Cc1cccnc1Br
inactive: dose: 25.0 mg/kg/injection, schedule: Q01DX009 (ip), vehicle: water 96 % of control | dose: 200.0 mg/kg/injection, schedule: Q01DX009 (ip), vehicle: water 89 % of control

NC1=NN(O)C2=CC(F)C=CC2=N1 (stereo not given)
inactive: dose: 50.0 mg/kg/injection, schedule: Q01DX009 (ip), vehicle: Klucel (hydroxypropylcellulose) (HPC) 103 % of control and 91 % of control | [7] 101 % of control and 114 % of control and 92 % of control | [8] 100 % of control and 91 % of control | [9] 105 % of control

CCC(c1ccc(OC)cc1)C(NCC(=O)N/N=C/c1ccccc1[N+](=O)[O-])c1ccc(OC)cc1 (stereo not given)
inactive: dose: 3.12 mg/kg/injection, schedule: Q01DX001 (ip), vehicle: saline with Tween-80 94 % of control | dose: 6.25 mg/kg/injection, schedule: Q01DX001 (ip), vehicle: saline with Tween-80 88 % of control | dose: 12.5 mg/kg/injection, schedule: Q01DX001 (ip), vehicle: saline with Tween-80 88 % of control | dose: 400.0 mg/kg/injection, schedule: Q01DX001 (ip), vehicle: saline with Tween-80 96 % of control

O=C1CSc2ncccc2N1c1ccc([N+](=O)[O-])cn1
inactive: dose: 50.0 mg/kg/injection, schedule: Q01DX009 (ip), vehicle: suspension in saline 105 % of control | [2] 100 % of control | dose: 100.0 mg/kg/injection, schedule: Q01DX009 (ip), vehicle: suspension in saline 101 % of control | [3] 96 % of control | dose: 200.0 mg/kg/injection, schedule: Q01DX009 (ip), vehicle: suspension in saline 101 % of control

C/C(=N\NC(=S)N1CCCC1)c1ccc[nH]1
inactive: [10] 102 % of control | [11] 114 % of control | [12] 89 % of control

CCCN1CC=CCC1
inactive: dose: 60.0 mg/kg/injection, schedule: Q01DX005 (ip), vehicle: saline 100 % of control | dose: 120.0 mg/kg/injection, schedule: Q01DX005 (ip), vehicle: saline 100 % of control | dose: 240.0 mg/kg/injection, schedule: Q01DX005 (ip), vehicle: saline 100 % of control

COC(=O)c1c2c(nc3ccccc13)-c1ccccc1C(C)(C)C2
inactive: [10] 92 % of control | [11] 95 % of control | [12] 96 % of control

CSc1nc(SC)c2cn(Cc3ccccc3)nc2n1
inactive: [4] 105 % of control | [5] 108 % of control | [6] 102 % of control

CC(=O)Nc1ccc(S(=O)(=O)Oc2noc3ccc(S(N)(=O)=O)cc23)cc1
inactive: dose: 100.0 mg/kg/injection, schedule: Q04DX002 (ip), vehicle: Klucel (hydroxypropylcellulose) (HPC) 102 % of control | dose: 200.0 mg/kg/injection, schedule: Q04DX002 (ip), vehicle: Klucel (hydroxypropylcellulose) (HPC) 107 % of control | dose: 400.0 mg/kg/injection, schedule: Q04DX002 (ip), vehicle: Klucel (hydroxypropylcellulose) (HPC) 109 % of control

O=C(O)c1c2cc(Br)ccc2nc2[nH]c(=O)[nH]c(=O)c12
inactive: dose: 50.0 mg/kg/injection, schedule: Q01DX005 (ip), vehicle: Klucel + Tween-80 104 % of control | dose: 100.0 mg/kg/injection, schedule: Q01DX005 (ip), vehicle: Klucel + Tween-80 112 % of control | dose: 200.0 mg/kg/injection, schedule: Q01DX005 (ip), vehicle: Klucel + Tween-80 111 % of control

CCOC(=O)c1ccc(NCC#N)cc1
inactive: dose: 100.0 mg/kg/injection, schedule: Q04DX003 (ip), vehicle: saline with Tween-80 100 % of control | dose: 200.0 mg/kg/injection, schedule: Q04DX003 (ip), vehicle: saline with Tween-80 100 % of control | dose: 400.0 mg/kg/injection, schedule: Q04DX003 (ip), vehicle: saline with Tween-80 100 % of control

O=c1cc2n(c(=O)n1Cc1ccccc1)CCC2
inactive: dose: 12.5 mg/kg/injection, schedule: Q01DX005 (ip), vehicle: saline with Tween-80 97 % of control | dose: 25.0 mg/kg/injection, schedule: Q01DX005 (ip), vehicle: saline with Tween-80 99 % of control | [4] 101 % of control

CCOC(=O)c1cnc2c(OC)cccc2c1Nc1ccc2c(c1)OCO2
inactive: dose: 60.0 mg/kg/injection, schedule: Q01DX005 (ip), vehicle: Klucel (hydroxypropylcellulose) (HPC) 101 % of control | dose: 120.0 mg/kg/injection, schedule: Q01DX005 (ip), vehicle: Klucel (hydroxypropylcellulose) (HPC) 97 % of control | dose: 240.0 mg/kg/injection, schedule: Q01DX005 (ip), vehicle: Klucel (hydroxypropylcellulose) (HPC) 96 % of control

NC(N)=N/N=C1C=C/C(=N/N=C(N)N)C/1
inactive: dose: 25.0 mg/kg/injection, schedule: Q01DX001 (ip), vehicle: saline 104 % of control | dose: 50.0 mg/kg/injection, schedule: Q01DX001 (ip), vehicle: saline 100 % of control | dose: 100.0 mg/kg/injection, schedule: Q01DX001 (ip), vehicle: saline 107 % of control | dose: 200.0 mg/kg/injection, schedule: Q01DX001 (ip), vehicle: saline 94 % of control

Nc1ccc2c(n1)NCC/C2=N\Nc1ccc(Br)cc1
inactive: [13] 103 % of control | [14] 104 % of control | [15] 106 % of control

NC[CH2][Sn]([c]1ccccc1)([CH]1CCCCC1)[CH]1CCCCC1
inactive: dose: 3.75 mg/kg/injection, schedule: Q01DX005 (ip), vehicle: saline with Tween-80 100 % of control | dose: 7.5 mg/kg/injection, schedule: Q01DX005 (ip), vehicle: saline with Tween-80 93 % of control | dose: 15.0 mg/kg/injection, schedule: Q01DX005 (ip), vehicle: saline with Tween-80 99 % of control | [1] 92 % of control

CC1CCCCN1c1cc2nc[nH]c(=O)c2cc1[N+](=O)[O-] (stereo not given)
inactive: dose: 100.0 mg/kg/injection, schedule: Q04DX003 (ip), vehicle: Klucel (hydroxypropylcellulose) (HPC) 108 % of control | dose: 200.0 mg/kg/injection, schedule: Q04DX003 (ip), vehicle: Klucel (hydroxypropylcellulose) (HPC) 99 % of control | dose: 400.0 mg/kg/injection, schedule: Q04DX003 (ip), vehicle: Klucel (hydroxypropylcellulose) (HPC) 100 % of control

Oc1ccc(C2C=CCC2)cc1C1C=CCC1 (stereo not given)
inactive: [7] 106 % of control | [8] 116 % of control | [9] 115 % of control
